The text below walks through data of ChEMBL document CHEMBL1201862, “PubChem BioAssay data set” (2004).

Test systems include RXF 393; K562; UACC-62; HL-60; SK-MEL-2; OVCAR-3; NCI-H23; A549; HCT-116; KM12; TK-10; SF-539; SK-MEL-5; HCC 2998; NCI-H226; COLO 205.
What all share (assay): growth of human tumour cells (NCI), 48 h

Structures are written as SMILES.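 Grown in 96-well plates, cells were treated for 48 hours with each compound at five concentrations. Insufficient inhibition: endpoint recorded as highest concentration tested. Abbreviation: GI50, concentration required for 50% inhibition of growth.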 The source made the active and inactive calls. Rule as the data show it: active = GI50 up to about 1.1 µM and inactive = higher.

On to `CC(C)(Oc1ccc2c(=O)cc(-c3ccccc3)oc2c1)C(=O)Nc1c(Cl)cccc1Cl`, for which the GI50 in the test on RXF 393 was < 0.01 µM (active); with K562 it was 12.1 µM (inactive); with UACC-62, > 100 µM (inactive); with HL-60, 44.3 µM (inactive); in the test on SK-MEL-2, > 100 µM (inactive); in the test on OVCAR-3, > 100 µM (inactive). For the same compound, the GI50 in the test with NCI-H23 was > 100 µM (inactive); with A549, 67.1 µM (inactive); in the test with HCT-116, 59.2 µM (inactive); in the test on KM12, 79.1 µM (inactive); in the test with TK-10 it was > 100 µM (inactive); with SF-539 it was > 100 µM (inactive). For the same compound, the GI50 in the test with SK-MEL-5 is 26.5 µM (inactive).
As to `Nc1nc2c(nnn2C2C=C(CO)C(O)C2O)c(=O)[nH]1` (stereo not given), the GI50 in the test on HCC 2998 was > 100 µM (inactive); in the test on RXF 393, 78 µM (inactive); in the test on K562, > 100 µM (inactive); in the test on UACC-62 it was 58.6 µM (inactive); with NCI-H226, > 100 µM (inactive); with SK-MEL-2 it was 24.2 µM (inactive). Also, the GI50 in the test with OVCAR-3, in the test with NCI-H23, with A549, in the test on HCT-116, in the test with KM12 and in the test with COLO 205 was > 100 µM (inactive) throughout. The GI50 in the test on TK-10, in the test on SF-539 and in the test on SK-MEL-5 was > 100 µM (inactive) in each case.
Regarding `CC1=C(C(=O)Nc2cccc(C(F)(F)F)c2)C(c2ccccc2F)C(C(=O)Nc2cccc(C(F)(F)F)c2)=C(C)N1`, the GI50 in the test on HCC 2998 is 3.31 µM (inactive); with RXF 393 it was 3.57 µM (inactive); in the test on K562, 3.96 µM (inactive); in the test on HL-60, 2.69 µM (inactive); in the test with NCI-H226, 4.38 µM (inactive); in the test with SK-MEL-2, 3.03 µM (inactive). In addition, the GI50 in the test on OVCAR-3 was 4.66 µM (inactive); with NCI-H23, 4.59 µM (inactive); in the test with A549 it was 4.58 µM (inactive); in the test with HCT-116, 3.63 µM (inactive); in the test on KM12, 3.74 µM (inactive); in the test on COLO 205, 4.82 µM (inactive). Also, the GI50 in the test with TK-10 was 8.26 µM (inactive); in the test with SF-539 it was 8.75 µM (inactive); in the test with SK-MEL-5 it was 5.43 µM (inactive).
Regarding `O=C(O)CN(c1ccc(Cl)cc1)S(=O)(=O)c1ccccc1`, the GI50 in the test on RXF 393, with K562, in the test with UACC-62, with HL-60, in the test on NCI-H226 and in the test with SK-MEL-2 was > 100 µM (inactive) throughout. Also, the GI50 with OVCAR-3 was > 100 µM (inactive); in the test on NCI-H23, > 100 µM (inactive); in the test with A549, > 100 µM (inactive); with KM12 it was > 100 µM (inactive); in the test on COLO 205, 51.2 µM (inactive); in the test on TK-10, > 100 µM (inactive). Further, the GI50 with SF-539 and with SK-MEL-5 was > 100 µM (inactive) throughout.
In the case of `CO/C=C/c1cc2c(cc1C(OC)OC)OCO2`, the GI50 in the test on HCC 2998 was > 100 µM (inactive); with RXF 393 it was 40.9 µM (inactive); in the test with K562, 29.9 µM (inactive); in the test on UACC-62 it was 22.6 µM (inactive); in the test with HL-60, 3.56 µM (inactive); in the test on NCI-H226 it was 57 µM (inactive). The GI50 was 82.2 µM (inactive) in the test with SK-MEL-2; 29.9 µM (inactive) in the test with OVCAR-3; 54 µM (inactive) in the test on NCI-H23; > 100 µM (inactive) in the test with A549; 27.5 µM (inactive) with HCT-116; 52.6 µM (inactive) with KM12. In addition, the results for the GI50 in the test on TK-10, in the test with SF-539 and in the test on SK-MEL-5 were 55 µM (inactive), 34.7 µM (inactive) and 17.4 µM (inactive), respectively.
On to `CC1=C(C(=O)Nc2ccc([N+](=O)[O-])cc2)C(c2ccc(N(C)C)cc2)C(C(=O)Nc2ccc([N+](=O)[O-])cc2)=C(C)N1`, for which the GI50 in the test on HCC 2998 is 12 µM (inactive); with RXF 393, 12.1 µM (inactive); with K562 it was 6.68 µM (inactive); in the test with HL-60 it was 13.1 µM (inactive); in the test with NCI-H226 it was 17.6 µM (inactive); in the test with SK-MEL-2, 13.7 µM (inactive). Further, the GI50 in the test on OVCAR-3 is 16 µM (inactive); with NCI-H23 it was 18 µM (inactive); with A549, 21.2 µM (inactive); with KM12, 11.6 µM (inactive); in the test on COLO 205, 15.4 µM (inactive); in the test on TK-10, 32 µM (inactive). The values for the GI50 with SF-539 and in the test on SK-MEL-5 were 23 µM (inactive) and 15 µM (inactive), respectively.
As to `CN1CC(=O)N(C)c2ncn(Cc3ccccc3)c2C1=O`, the GI50 in the test with HCC 2998, in the test with RXF 393, in the test with K562, in the test on UACC-62, in the test with HL-60 and in the test with OVCAR-3 was > 100 µM (inactive) each time. The GI50 with NCI-H23, in the test on A549, in the test with KM12, in the test on COLO 205, in the test on TK-10 and in the test on SF-539 was > 100 µM (inactive) throughout. The GI50 in the test with SK-MEL-5 was > 100 µM (inactive).
As to `NNC(=S)N/N=C(\c1nc2ccc(Cl)cc2nc1O)C(O)c1ccc(Cl)cc1Cl` (stereo not given), the GI50 in the test with RXF 393, with K562, in the test with UACC-62, with HL-60, with NCI-H226 and in the test with SK-MEL-2 was > 100 µM (inactive) throughout. For the same compound, the GI50 in the test with NCI-H23, in the test on A549, in the test with HCT-116, with KM12, with COLO 205 and in the test on TK-10 was > 100 µM (inactive) throughout. In addition, the GI50 in the test on SF-539 and with SK-MEL-5 was > 100 µM (inactive) throughout.
For `CCN(CC)c1c(C(=O)/C=C/c2ccc(OC)cc2)c(-c2ccccc2)nn(C)c1=O`, the GI50 is 10.6 µM (inactive) with RXF 393; 9.06 µM (inactive) with K562; 10.5 µM (inactive) in the test on UACC-62; 6.7 µM (inactive) in the test with HL-60; 16.1 µM (inactive) in the test with NCI-H226; 18.6 µM (inactive) in the test with SK-MEL-2. In addition, the GI50 in the test on NCI-H23 was 10.4 µM (inactive); in the test on A549, 12 µM (inactive); in the test on KM12, 12.7 µM (inactive); with COLO 205, 3.87 µM (inactive); with TK-10 it was 32.8 µM (inactive); in the test on SF-539, 17.1 µM (inactive). For the same compound, the GI50 in the test with SK-MEL-5 was 8.41 µM (inactive).
As for `COC(=O)C(=O)C(C(=O)C1=NS(=O)(=O)c2cc(S(N)(=O)=O)c(Cl)cc2N1)c1nc2ccc(C(=O)c3ccccc3)cc2nc1O` (stereo not given), the GI50 in the test on HCC 2998 was > 100 µM (inactive); with RXF 393, > 100 µM (inactive); in the test with K562, 40 µM (inactive); in the test on UACC-62 it was 63.2 µM (inactive); with NCI-H226, > 100 µM (inactive); in the test with SK-MEL-2, > 100 µM (inactive). For the same compound, the GI50 with NCI-H23 is 2.6 µM (inactive); in the test on A549, > 100 µM (inactive); in the test on HCT-116 it was > 100 µM (inactive); in the test with KM12 it was 67.6 µM (inactive); with COLO 205, > 100 µM (inactive); in the test on TK-10 it was > 100 µM (inactive). Moreover, the GI50 with SF-539 was 90.6 µM (inactive); in the test with SK-MEL-5, 40.2 µM (inactive).
